Reference: the supplement of paper PMC11208160

assay: recombinant barcode read abundance after kanamycin selection (control-corrected) (log10(CPM+1)); higher = more efficient recombination; sequences stand for … in AGTGCAGAGAAAATCGGCCAGTTTTCTCTGCCTGCAGTCCGCATGCCGT…AGATTTATGCAGCGGACTGCCTTTCTCCCAAAGTGATAAACCGGACAGTATCATGGACCGGTTTTCCCGGTAATCCGTATTTGCAAGGTTGGTTTCACT; site = the 11-nt target
Outline: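 Targets and IS621 bridge RNA target-binding loops were paired in oligos, each with a promoter, a barcode and the J23119-driven first 104 bridge RNA bases. A vector carrying the remaining 73 bp and a T7-inducible recombinase received these by Gibson cloning, and the pool was co-electroporated into E. coli with a donor plasmid. Duplicate plates contained chloramphenicol/ampicillin LB agar (control) or chloramphenicol/ampicillin/kanamycin with 0.1 mM IPTG. Recombination efficiency comes from averaged, control-corrected counts per million of recombinant-junction barcodes, reported as log10(CPM+1).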
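Also: IS621 recombinase and bridge RNA in Escherichia coli cells.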

Sequence | recombinant barcode read abundance (log10)
CTCTCGTCTTGGGTTCTAACCTGTTGCGT (site CTCTCGTCTAC) | 1.19
CTCTCGTCTTGGGTTCTAACCTGTTGCGT (site CTCTCGTCTAG) | 0.291
CTCTCGTCTTGGGTTCTAACCTGTTGCGT (site CTCTCGTCTAT) | 0.0817
CTCTCTCCTTGGGTTCTAACCTGTTGCCT (site CTCTCTCCTAG) | 0.261
CTCTCTCCTTGGGTTCTAACCTGTTGCCT (site CTCTCTTCTAG) | 0.148
CTCTGGACTTGGGTTCTAACCTGTTGCAC (site CTCTGGACTGT) | 0.64
CTCTGGACTTGGGTTCTAACCTGTTGCAC (site CTGTGGACTCT) | 0.058
CTCTGGGCTTGGGTTCTAACCTGTTGCCT (site CTCTAGGCTAG) | 0.179
CTCTGGGCTTGGGTTCTAACCTGTTGCCT (site CTCTCGGCTAG) | 0.29
CTCTGGGCTTGGGTTCTAACCTGTTGCCT (site CTCTGGGCTAG) | 0.15
CTCTGGGCTTGGGTTCTAACCTGTTGCCT (site CTCTTGGCTAG) | 0.198
CTCTTGGCTTGGGTTCTAACCTGTTGCCT (site CTCTAGGCTAG) | 0.261
CTCTTGGCTTGGGTTCTAACCTGTTGCCT (site CTCTCGGCTAG) | 0.139
CTCTTGGCTTGGGTTCTAACCTGTTGCCT (site CTCTGGGCTAG) | 0.0739
CTCTTGGCTTGGGTTCTAACCTGTTGCCT (site CTCTTGGCTAG) | 0.0663
CTCTTGTCTTGGGTTCTAACCTGTTGCCA (site CGCTTGTCTCG) | 0.391
CTCTTGTCTTGGGTTCTAACCTGTTGCCA (site CTCTTGTCTTG) | 0
CTGAGCCCTTGGGTTCTAACCTGTTGCCT (site CTGAGCCCTAG) | 0.6
CTGAGCCCTTGGGTTCTAACCTGTTGCCT (site CTGCGCCCTAG) | 0.448
CTGAGCCCTTGGGTTCTAACCTGTTGCCT (site CTGGGCCCTAG) | 0.354
CTGAGCCCTTGGGTTCTAACCTGTTGCCT (site CTGTGCCCTAG) | 0.0331
CTGAGCCCTTGGGTTCTAACCTGTTGCTG (site CAGAGCCCTCA) | 0.327
CTGAGCCCTTGGGTTCTAACCTGTTGCTG (site CTGAGCCCTCA) | 1.5
CTGCACCCTTGGGTTCTAACCTGTTGCCT (site CGCCACCCTAG) | 0.411
CTGCACCCTTGGGTTCTAACCTGTTGCCT (site CTGCACCCTAG) | 1.57
CTGCTGTCTTGGGTTCTAACCTGTTGCCA (site CTGATGTCTTG) | 0.154

Sequence | recombinant barcode read abundance (log10)
CTGCTGTCTTGGGTTCTAACCTGTTGCCA (site CTGCTGTCTTG) | 0.095
CTGCTGTCTTGGGTTCTAACCTGTTGCCA (site CTGGTGTCTTG) | 0.402
CTGCTGTCTTGGGTTCTAACCTGTTGCCA (site CTGTTGTCTTG) | 0.0953
CTGGATCCTTGGGTTCTAACCTGTTGCCT (site CTCGACCCTAG) | 0.0729
CTGGATCCTTGGGTTCTAACCTGTTGCCT (site CTGGATCCTAG) | 2.25
CTGGGCTCTTGGGTTCTAACCTGTTGCCA (site CTGGGCTCTTG) | 1.14
CTGGGCTCTTGGGTTCTAACCTGTTGCCA (site GTGGGCTCTAG) | 0.282
CTGGGTTCTTGGGTTCTAACCTGTTGCCT (site CAGGGTTCTAG) | 0.0887
CTGGGTTCTTGGGTTCTAACCTGTTGCCT (site CCGGGTTCTAG) | 0.138
CTGGGTTCTTGGGTTCTAACCTGTTGCCT (site CGGGGTTCTAG) | 0.312
CTGGGTTCTTGGGTTCTAACCTGTTGCCT (site CTGGGTTCTAG) | 0.17
CTGGTCACTTGGGTTCTAACCTGTTGCGG (site CTAGACACTCC) | 0.11
CTGGTCACTTGGGTTCTAACCTGTTGCGG (site CTGGTCACTCC) | 2.74
CTGGTCCCTTGGGTTCTAACCTGTTGCGG (site CTGATCCCTCC) | 0.983
CTGGTCCCTTGGGTTCTAACCTGTTGCGG (site CTGCTCCCTCC) | 0.0151
CTGGTCCCTTGGGTTCTAACCTGTTGCGG (site CTGGTCCCTCC) | 2.72
CTGGTCCCTTGGGTTCTAACCTGTTGCGG (site CTGTTCCCTCC) | 0.151
CTGTCTCCTTGGGTTCTAACCTGTTGCGT (site AGAAGCACTTG) | 0.11
CTGTCTCCTTGGGTTCTAACCTGTTGCGT (site CTGTCTCCTAC) | 0.833
CTGTGGACTTGGGTTCTAACCTGTTGCAG (site CTCTGGACTGT) | 0
CTGTGGACTTGGGTTCTAACCTGTTGCAG (site CTGTGGACTCT) | 1.13
CTGTTATCTTGGGTTCTAACCTGTTGCCT (site CTATTATCTAG) | 0.127
CTGTTATCTTGGGTTCTAACCTGTTGCCT (site CTGTTATCTAG) | 0.237
CTTAAATCTTGGGTTCTAACCTGTTGCCT (site CTTAAATCTAG) | 0.0558
CTTAAATCTTGGGTTCTAACCTGTTGCCT (site CTTCAATCTAG) | 0.0867
CTTAAATCTTGGGTTCTAACCTGTTGCCT (site CTTGAATCTAG) | 0.24

Sequence | recombinant barcode read abundance (log10)
CTTAAATCTTGGGTTCTAACCTGTTGCCT (site CTTTAATCTAG) | 0.165
CTTACCGCTTGGGTTCTAACCTGTTGCCT (site CTTACAGCTAG) | 0.137
CTTACCGCTTGGGTTCTAACCTGTTGCCT (site CTTACCGCTAG) | 1.19
CTTACCGCTTGGGTTCTAACCTGTTGCCT (site CTTACGGCTAG) | 0.235
CTTACCGCTTGGGTTCTAACCTGTTGCCT (site CTTACTGCTAG) | 0.273
CTTAGCTCTTGGGTTCTAACCTGTTGCCT (site CGTAGGTCTAG) | 0.009
CTTAGCTCTTGGGTTCTAACCTGTTGCCT (site CTTAGCTCTAG) | 1.15
CTTAGGACTTGGGTTCTAACCTGTTGCCC (site CTTAGGACTAG) | 0.374
CTTAGGACTTGGGTTCTAACCTGTTGCCC (site CTTAGGACTCG) | 0.283
CTTAGGACTTGGGTTCTAACCTGTTGCCC (site CTTAGGACTGG) | 0.404
CTTAGGACTTGGGTTCTAACCTGTTGCCC (site CTTAGGACTTG) | 0.00992
CTTCACGCTTGGGTTCTAACCTGTTGCCT (site CTTCACACTAT) | 0.177
CTTCACGCTTGGGTTCTAACCTGTTGCCT (site CTTCACGCTAG) | 1.21
CTTCAGCCTTGGGTTCTAACCTGTTGCCT (site CTTCAACCTAG) | 0.612
CTTCAGCCTTGGGTTCTAACCTGTTGCCT (site CTTCACCCTAG) | 0.259
CTTCAGCCTTGGGTTCTAACCTGTTGCCT (site CTTCAGCCTAG) | 0.789
CTTCAGCCTTGGGTTCTAACCTGTTGCCT (site CTTCATCCTAG) | 0
CTTCAGGCTTGGGTTCTAACCTGTTGCCT (site CTTCAGGCTAG) | 0.594
CTTCAGGCTTGGGTTCTAACCTGTTGCCT (site CTTGAGACTAG) | 0.0551
CTTCCTTCTTGGGTTCTAACCTGTTGCCT (site CTCCCTTCTAA) | 0.128
CTTCCTTCTTGGGTTCTAACCTGTTGCCT (site CTTCCTTCTAG) | 0.543
CTTCGAGCTTGGGTTCTAACCTGTTGCCG (site CTTCGAGCTCA) | 0.112
CTTCGAGCTTGGGTTCTAACCTGTTGCCG (site CTTCGAGCTCC) | 0.0907
CTTCGAGCTTGGGTTCTAACCTGTTGCCG (site CTTCGAGCTCG) | 0.873
CTTCGAGCTTGGGTTCTAACCTGTTGCCG (site CTTCGAGCTCT) | 0.138
